Values of other authors in patent US12144813B2, “PLK1 inhibitor in combination with anti-angiogenics for treating metastatic cancer” (CARDIFF ONCOLOGY, INC., priority 2022, dated 2024).
Read-outs that look alike come from different tables or passages of the source.

Experiments:
PLK1 = PLK1 (Homo sapiens, UniProt P53350); conditions: panel of 296 kinases, including other PLK members
[1] = system: cell lines, both from solid as well as hematologic tumors; conditions: large number of cell lines, solid and hematologic tumors
[2] = system: disseminated model of AML
xenograft tumor = conditions: well tolerated doses in mice after oral administration
[3] = system: HT29 human colon adenocarcinoma xenografts; conditions: combination with irinotecan
[4] = system: patients with advanced/metastatic solid tumors
[5] = system: patients with AML who were treatment naïve yet unsuitable for induction therapy; conditions: administered intravenously in combination with LDAC; phase II
AML = conditions: combination with LDAC; phase III
[6] = system: 2nd line patients, bev naïve or prior bev in 1st line; conditions: prior trials

Chain of PLK1 (P53350 whole entry): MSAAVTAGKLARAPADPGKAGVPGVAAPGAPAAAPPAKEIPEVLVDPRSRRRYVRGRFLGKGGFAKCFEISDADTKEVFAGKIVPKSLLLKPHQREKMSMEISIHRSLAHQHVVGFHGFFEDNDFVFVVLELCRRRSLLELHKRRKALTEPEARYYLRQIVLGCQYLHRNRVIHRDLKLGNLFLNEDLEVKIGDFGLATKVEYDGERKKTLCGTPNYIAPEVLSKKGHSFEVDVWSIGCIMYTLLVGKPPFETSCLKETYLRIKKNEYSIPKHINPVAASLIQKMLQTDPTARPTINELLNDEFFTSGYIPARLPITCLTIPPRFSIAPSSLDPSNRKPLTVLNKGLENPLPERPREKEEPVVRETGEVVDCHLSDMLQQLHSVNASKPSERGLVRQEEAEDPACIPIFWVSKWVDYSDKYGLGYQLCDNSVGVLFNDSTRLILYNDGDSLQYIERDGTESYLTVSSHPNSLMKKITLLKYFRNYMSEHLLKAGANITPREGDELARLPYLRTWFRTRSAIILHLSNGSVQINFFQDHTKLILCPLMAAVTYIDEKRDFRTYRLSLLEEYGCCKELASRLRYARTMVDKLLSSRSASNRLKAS

CN1CCN(c2ccc(OC(F)(F)F)c(Nc3ncc4c(n3)-c3c(c(C(N)=O)nn3CCO)CC4)c2)CC1 [Onvansertib, 1-(2-hydroxyethyl)-8-{[5-(4-methylpiperazin-1-yl)-2-(trifluoromethoxy)phenyl]amino}-4,5-dihydro-1H-pyrazolo[4,3-h]quinazoline-3-carboxamide]
Specificity for PLK1 (PLK1): high specificity | Inhibition of cell proliferation (AML cell lines): nanomolar concentrations | Potency in proliferation assays [1]: low nanomolar activity | Cell-cycle effect (cancer cell lines): mitotic cell-cycle arrest followed by apoptosis | Survival of animals ([2]; disseminated model of AML, combination therapy with cytarabine): prolonged survival | Effect on cytarabine antitumor activity ([2]; disseminated models of AML, with cytarabine): significantly increased | Xenograft tumor growth (xenograft tumor): inhibits xenograft tumor growth | Tumor regression compared to each agent alone [3]: enhanced tumor regression | Primary dose-limiting toxicities ([4]; phase I, patients with advanced/metastatic solid tumors): neutropenia and thrombocytopenia | Recovery from hematologic toxicities ([4]; reversible toxicities): ≤ 3 weeks

CC[C@@H]1C(=O)N(C)c2cnc(Nc3ccc(C(=O)N[C@H]4CC[C@H](N5CCN(CC6CC6)CC5)CC4)cc3OC)nc2N1C(C)C [volasertib (BI6727)]
OS compared with LDAC alone [5]: significant increase in OS | Benefit of the combination (AML): no benefit | Risk of severe infections (AML): increased risk of severe infections

Bevacizumab: anti-angiogenics / angiogenesis inhibitor, also referred to herein as bev
mOS ([6]; bev naïve patients): 13.9 months | mPFS ([6]; bev naïve patients): 6.9 months | mOS ([6]; patients with prior bev): 12.5 months | mPFS ([6]; patients with prior bev): 6.7 months
